In article PMC11314343, “Improving the Solubility, Stability, and Bioavailability of Albendazole through Synthetic Salts” (Molecules, 2024):
In brackets after ≈: the same amount, converted by molar mass.

Assays:
[1] = Dynamic vapor sorption (DVS), moisture adsorption isotherms; type: physicochemical; settings: for water adsorption: 25 °C, at 90% RH
Procedure: The moisture sorption characteristics of all specimens were assessed at a temperature of 25 °C using an automated dynamic vapor sorption analyzer (Surface Measurement Systems, Wembley, UK). Prior to the sorption examination, the samples were equilibrated at a humidity level of 0% relative humidity (RH) to remove any adsorbed moisture. The specimens underwent a gradual variation in relative humidity, transitioning from 0 to 90% RH at intervals of 10% RH. Humidity was adjusted by increasing it by +10% RH after 6 h or upon achieving the equilibrium condition. The equilibrium condition was met when there was a <0.002% change in mass per minute within a span of 10 min. Upon completion of the sorption sequence, all samples were subjected to drying at 0% RH, which was stopped when the Δm/Δt was less than 0.002%/min within 10 min.

[2] = Intrinsic dissolution rate (IDR); type: physicochemical; settings: 37 °C
Procedure: The powdered sample (140 mg) was measured and compacted to a tablet hardness of 5 Kg by a tester, employing a small manual tablet press. […] Then, 0.3 mL of the solution was withdrawn, at 1 min intervals, and subsequently subjected to centrifugation (15,000 rpm, 3 min). Afterward, it was subjected to double dilution with methanol and analyzed for the presence of the drug using HPLC.

[3] = Solid-state stability, influencing factor testing (strong light, high humidity, elevated temperature); type: physicochemical; settings: for stability under influencing factor conditions: 4500 ± 500 lux; for stability under influencing factor conditions / crystal transformation (PXRD): 92.5 ± 5% RH, 50 ± 2 °C; for crystal transformation (PXRD): strong light 4500 ± 500 lux, 0, 5, 10 days; for change of IDR on the 5th and 10th days compared to day 0: strong light, high humidity and high temperature
Procedure: Influencing factor testing included a strong light irradiation test, a high-humidity test, and an elevated temperature test. The strong light irradiation test involved placement of the sample opening under a light with an intensity of 4500 ± 500 lux. The high-humidity test involved placement of the sample in a constant-humidity container at 25 °C and 92.5% RH (saturated potassium nitrate solution). The high-temperature test involved placing the sample in a DHG-9070A constant-temperature oven (Shanghai Yiheng Technology Instrument Co., Ltd., Shanghai, China), set at 50 °C. Samples were taken on the 0th, 5th, and 10th days, and the crystal structure and dissolution of the samples were assessed for significant differences based on PXRD and IDR, as outlined above.

[4] = Pharmacokinetic comparison in Wistar rats after oral administration
Procedure: In vivo pharmacokinetic examination of albendazole and albendazole salts was performed in a half-male and half-female group of Wistar rats (n = 6), with an average body weight of 200 ± 20 g. The rats were fasted for one night before administration of albendazole at a dose of 25 mg/kg by gavage. Blood sampling was conducted by placing a jugular vein catheter surgically the day before administration. […] The tubes were centrifuged at 13,000× g for 10 min, and the upper plasma was collected and stored in an ultra-low-temperature freezer at −80 °C. Samples were processed by obtaining 100 μL of plasma; then, 400 μL of methanol was added, the samples were vortexed for 1 min, and they were centrifuged at 13,000× g for 5 min. Finally, 300 μL of the supernatant was obtained. A mixture of 6 μL of 10 μG/mL toluidazole internal standard solution was added to the supernatant. After 1 min of vortexing, the samples were centrifuged at 13,000× g for 5 min. The supernatant was then filtered through a microporous filter membrane before employing UPLC-HR-ESI-MS to assess the drug content.
The plasma concentrations of ABZ were assessed using a Dionex Ultimate 3000 RSLC system (Thermo Fisher, Waltham, MA, USA) equipped with an ACQUITY UPLC BEH C18 Column (130 Å, 150 mm × 2.1 mm × 2.6 μm) at a column temperature of 30 ± 1 °C. […] The MS analysis was conducted using a Q-Orbitrap MS coupled with heated electrospray ionization (HESI, Washington, DC, USA). The MS analysis was performed in full MS-ddMS^2 mode, with damping gas in the C-trap and nitrogen used to stabilize the spray. The auxiliary gas heater and capillary temperatures were established and maintained at 350 °C and 320 °C, respectively. In the negative mode, a spray voltage of 3.0 kV and an S-lens RF level of 60 V were employed. The full MS-ddMS^2 scan range was from 150.0000 to 1000.0000 m/z, and the precise molecular weight […] was employed for qualitative analysis. The corresponding peak area was utilized for quantitative analysis, and the MS^2 fragments were employed in further qualitative analysis.
The pharmacokinetic parameters were examined through non-compartment model analysis using DAS 2.0.

[5] = set-up: method as in PMID 12527162; settings: cited from earlier work
[6] = set-up: method as in PMID 18938096; settings: cited from earlier work
[7] = water at 25 °C; cited from earlier work
[8] = Accelerated stability testing; type: physicochemical; settings: for stability under accelerated test conditions: 40 °C/75 ± 5% RH; for PXRD spectra under accelerated stability conditions: 40 ± 2 °C/75 ± 5% RH, 0, 3, 6 months
Procedure: Accelerated testing was utilized to contrast the stability of ABZ and its salts in the solid state. The solid variations were placed in an airtight container at 40 ± 2 °C with a humidity level of 75 ± 5% RH, and specimens were harvested at the intervals of 0, 3, and 6 months. PXRD analysis was used to ascertain whether there were any substantial alterations in dissolution properties and the crystal structure of the sample.

[9] = both, Wistar, rat, plasma, po, 25 mg/kg
[10] = Wistar rats, oral 25 mg/kg, plasma ABZ

SMILES | water adsorption [1] [%] | IDR ([2]; pH 2 buffer) [mg·cm^−2·min^−1] | IDR ([2]; pH 7.4 buffer) [mg·cm^−2·min^−1] | stability under influencing factor conditions [3] | crystal transformation (PXRD) [3] | change of IDR on the 5th and 10th days compared to day 0 [3] | stability under accelerated test conditions [8] | PXRD spectra under accelerated stability conditions [8] | Cmax increase compared to ABZ ([4]; Wistar rats, oral 25 mg/kg) | MRT(0–24) ([4]; Wistar rats, oral 25 mg/kg) [h] | MRT(0–∞) ([4]; Wistar rats, oral 25 mg/kg) [h] | T1/2 ([4]; Wistar rats, oral 25 mg/kg) [h] | Tmax ([4]; Wistar rats, oral 25 mg/kg) [h] | AUC(0–24) [4, 10] [ng/mL/h] | AUC(0–∞) [4, 10] [ng/mL/h] | Cmax [4, 10] [ng/mL] | also measured
CCCSc1ccc2nc(NC(=O)OC)[nH]c2c1 [ABZ, Albendazole] | 3.86 | 0.0096 | 0.0004 | – | – | – | – | – | – | – | – | – | – | – | – | – | change of IDR after being placed at 50 °C ([3]; 50 °C, 5 and 10 days vs day 0): increased; half-life ([4]; both, Wistar, rat, in vivo, po, 25 mg/kg): 5.98 ± 3.27 h; AUC(0-inf) [4, 9]: 374 ± 136 ng·h/mL; AUC(0-t) [4, 9]: 352 ± 147 ng·h/mL; Cmax [4, 9]: 69.6 ± 51.7 ng/mL; MRT inf [4, 9]: 9.19 ± 5.1 h; MRT last [4, 9]: 7.07 ± 2.27 h; Tmax [4, 9]: 2.54 ± 1.57 h; log P [5]: 2.54; oral bioavailability in humans [6]: less than 5%; solubility in water [7]: 22.8 µg/mL (≈ 85.9 µM)
CCCSc1ccc2[nH]c(NC(=O)OC)nc2c1.O=C(O)C(O)C(O)C(=O)O [ABZ-DTA, albendazole D-tartrate] | 70.15 | 0.0730 | 0.0008 | remained stable for 10 days | not observed | no statistically significant difference | remained stable for 6 months | unchanged | ~4.6 times | 6.67 ± 0.61 | 8.92 ± 1.51 | 6.11 ± 1.21 | 1.25 ± 0.61 | 1835.37 ± 379.84 | 1955.94 ± 431.79 | 322.68 ± 68.67 | weight increase by water adsorption ([1]; sharp increase when the RH reached 60%): 47.59%
CCCSc1ccc2[nH]c(NC(=O)OC)nc2c1.O=C(O)C=CC(=O)O [ABZ-FMA, albendazole fumarate] | 6.72 | 0.0328 | 0.0009 | remained stable for 10 days | not observed | no statistically significant difference | remained stable for 6 months | unchanged | approximately 3.8 times | 6.41 ± 0.66 | 17.53 ± 15.90 | 14.07 ± 14.37 | 1.67 ± 1.17 | 1205.56 ± 855.61 | 1975.42 ± 1856.96 | 260.58 ± 179.73 | –
CCCSc1ccc2[nH]c(NC(=O)OC)nc2c1.Cl [ABZ-HCl, albendazole hydrochloride] | 37.65 | 0.1128 | 0.0041 | remained stable for 10 days | not observed | no statistically significant difference | remained stable for 6 months | unchanged | ~6.9 times | 7.66 ± 2.08 | 24.65 ± 33.76 | 16.85 ± 23.17 | 1.21 ± 0.68 | 3089.28 ± 1228.16 | 5371.96 ± 4618.85 | 478.96 ± 138.62 | –
